Assay results from patent US20060079453A1, “Hla binding peptides and their uses” (priority 2002, published 2006).
Read-outs that look alike come from different tables or passages of the source. No end group written: not given here.

Key:
Test in all cases: biochemical
Assay type in all cases: binding
HLA-DR DRB1*0301 (DR3) = HLA-DR DRB1*0301 (DR3) (Homo sapiens, UniProt P01903+P01911, A100K/A102G/A103R/A169T/F55Y/I96L/K41T/L162R/M171V/P40S/Q125H/Q178H/Q39Y/R42S/S66N/T106N/T262R/W38E/Y61H)
HLA-DR DRB1*0401 (DR4) = HLA-DR DRB1*0401 (DR4) (Homo sapiens, UniProt P01903+P01911, A100K/A169T/F76Y/I96L/K127E/L162R/M171V/N62H/P40V/Q125Y/R42H/S133A/S149N/S66Y/V115G/V209L/W38E)
HLA-DR DRB1*0405 (DR4) = HLA-DR DRB1*0405 (DR4) (Homo sapiens, UniProt P01903+P01911, A100R/A169T/D86S/F76Y/I96L/K127E/L162R/M171V/N62H/P40V/Q125Y/R42H/S133A/S149N/S66Y/V115G/V209L/W38E)
HLA-DR DRB1*0701 (DR7) = HLA-DR DRB1*0701 (DR7) (Homo sapiens, UniProt P01903+P01911, A100R/A102G/A103Q/D57E/D86V/E43K/F76Y/K127E/L162R/M171V/P40G/Q125H/Q99D/R33Q/R42Y/R54Q/S133A/S66F/T210M/V115G/Y107V/Y59L/Y89S)
HLA-DR DRB1*1101 (DR11) = HLA-DR DRB1*1101 (DR11) (Homo sapiens, UniProt P01903+P01911, A100R/A169T/A87E/I96F/K41T/L162R/M171V/P40S/Q125H/Q178H/Q39Y/Q99D/R42S/S66Y/T262R/V115G/W38E)
HLA-DR DRB1*1302 (DR13) = HLA-DR DRB1*1302 (DR13) (Homo sapiens, UniProt P01903+P01911, A100E/A169T/K41T/L162R/M171V/P40S/Q125H/Q178H/Q39Y/Q99D/R42S/S66N/T262R/V115G/W38E/Y61H)
HLA-DR DRB1*1501 (DR15) = HLA-DR DRB1*1501 (DR15) (Homo sapiens, UniProt P01903+P01911)
HLA-DR DRB3*0101 (DR52) = HLA-DR DRB3*0101 (DR52) (Homo sapiens, UniProt P01903+P79483)
HLA-DR DRB5*0101 (DR51) = HLA-DR DRB5*0101 (DR51) (Homo sapiens, UniProt P01903+Q30154)
HLA-DR DRB4*0101 (DR53) = HLA-DR DRB4*0101 (DR53) (Homo sapiens, UniProt P01903+P13762, G164S)
HLA-DR DRB1*0101 (DR1) = HLA-DR DRB1*0101 (DR1) (Homo sapiens, UniProt P01903+P01911, A100R/D57E/F55L/F60I/F76Y/I96L/L162R/M171V/P40L/Q125E/R42F/V115G/Y59C)
HLA-DR DRB1*0802 (DR8) = HLA-DR DRB1*0802 (DR8) (Homo sapiens, UniProt P01903+P01911, A100R/A103L/A169T/F76Y/H45Y/I96F/K41T/L162R/M171V/P40S/Q125H/Q178H/Q39Y/Q99D/R218S/R42G/S66Y/V115G/W38E)
HLA-DR DRB1*0901 (DR9) = HLA-DR DRB1*0901 (DR9) (Homo sapiens, UniProt P01903+P01911, A100R/A103E/D57H/D86V/F55Y/F60I/F76Y/I96F/K127E/L162R/M171V/P40D/Q125H/Q99R/R33Q/R42F/S133A/S66N/T210M/V115G/W38K/Y107V/Y59G/Y89S)

HLA-DR DRB1*1101 (DR11), sequence (P01903 26-254 limits assumed, other chains not shown): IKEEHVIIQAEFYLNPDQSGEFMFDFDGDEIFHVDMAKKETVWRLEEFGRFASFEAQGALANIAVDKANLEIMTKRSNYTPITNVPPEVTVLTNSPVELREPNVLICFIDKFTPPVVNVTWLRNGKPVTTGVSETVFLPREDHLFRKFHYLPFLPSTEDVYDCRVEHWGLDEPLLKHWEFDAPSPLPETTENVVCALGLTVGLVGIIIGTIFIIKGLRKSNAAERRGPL
HLA-DR DRB1*0301 (DR3), sequence (P01903 26-254 limits assumed, other chains not shown): as above
HLA-DR DRB1*1302 (DR13), sequence (P01903 26-254 limits assumed, other chains not shown): as above

VGGVYALPRRGPRLGV
IC50 (HLA-DR DRB1*0301 (DR3)): 349 µM
IC50 (HLA-DR DRB1*0401 (DR4)): 25.7 µM
IC50 (HLA-DR DRB1*0405 (DR4)): > 12.2 µM
IC50 (HLA-DR DRB1*0701 (DR7)): 0.749 µM
IC50 (HLA-DR DRB1*1101 (DR11)): 0.012 µM
IC50 (HLA-DR DRB1*1302 (DR13)): > 15.4 µM
IC50 (HLA-DR DRB1*1501 (DR15)): 0.451 µM
IC50 (HLA-DR DRB3*0101 (DR52)): > 66.5 µM
IC50 (HLA-DR DRB5*0101 (DR51)): 0.034 µM

GAPLGGAAAALAHGV
IC50 (HLA-DR DRB1*0301 (DR3)): 82.1 µM
IC50 (HLA-DR DRB1*0401 (DR4)): 5.47 µM
IC50 (HLA-DR DRB1*0405 (DR4)): > 3.37 µM
IC50 (HLA-DR DRB1*0701 (DR7)): 31.9 µM
IC50 (HLA-DR DRB1*1101 (DR11)): 43.8 µM
IC50 (HLA-DR DRB1*1302 (DR13)): 23.8 µM
IC50 (HLA-DR DRB1*1501 (DR15)): 7.68 µM
IC50 (HLA-DR DRB3*0101 (DR52)): > 51.1 µM
IC50 (HLA-DR DRB4*0101 (DR53)): 0.031 µM
IC50 (HLA-DR DRB5*0101 (DR51)): 12.9 µM

CC[C@H](C)[C@H](NC(=O)[C@H](CCC(=O)O)NC(=O)[C@@H](NC(=O)[C@H](Cc1ccc(O)cc1)NC(=O)[C@H](CCC(=O)O)NC(=O)[C@@H](N)CCC(=O)O)C(C)C)C(=O)N[C@@H](CCCNC(=N)N)C(=O)N[C@@H](CCC(N)=O)C(=O)N[C@H](C(=O)NCC(=O)N[C@@H](CC(=O)O)C(=O)N[C@@H](Cc1ccccc1)C(=O)N[C@@H](Cc1c[nH]cn1)C(=O)O)C(C)C
IC50 (HLA-DR DRB1*0101 (DR1); DRB1 *0101): > 1.96 µM
IC50 (HLA-DR DRB1*0301 (DR3)): 74.9 µM
IC50 (HLA-DR DRB1*0401 (DR4); DRB1 *0401): > 5.37 µM
IC50 (HLA-DR DRB1*0405 (DR4); DRB1 *0405): 0.026 µM
IC50 (HLA-DR DRB1*0701 (DR7); DRB1 *0701): 11.3 µM
IC50 (HLA-DR DRB1*0802 (DR8)): 13.9 µM
IC50 (HLA-DR DRB1*0901 (DR9); DRB1 *0901): 11.2 µM
IC50 (HLA-DR DRB1*1101 (DR11); DRB1 *1101): 4.68 µM
IC50 (HLA-DR DRB1*1302 (DR13); DRBI *1302): > 1.9 µM
IC50 (HLA-DR DRB1*1501 (DR15); DRBI *1501): 2.06 µM
IC50 (HLA-DR DRB4*0101 (DR53); DRB4 *0101): 2.06 µM
IC50 (HLA-DR DRB5*0101 (DR51); DRB5 *0101): 9.75 µM

VGGVYLLARRGPRLGV
IC50 (HLA-DR DRB1*0101 (DR1)): 0.06 µM
IC50 (HLA-DR DRB1*0301 (DR3)): 23.3 µM
IC50 (HLA-DR DRB1*0401 (DR4)): 0.485 µM
IC50 (HLA-DR DRB1*0405 (DR4)): 2.2 µM
IC50 (HLA-DR DRB1*0701 (DR7)): 0.595 µM
IC50 (HLA-DR DRB1*1101 (DR11)): 0.0065 µM
IC50 (HLA-DR DRB1*1501 (DR15)): 0.0028 µM
IC50 (HLA-DR DRB3*0101 (DR52)): 17 µM
IC50 (HLA-DR DRB4*0101 (DR53)): 4.34 µM
IC50 (HLA-DR DRB5*0101 (DR51)): 0.017 µM

GAPLGGAARALAHGV
IC50 (HLA-DR DRB1*0101 (DR1); DRB1 *0101): 0.69 µM
IC50 (HLA-DR DRB1*0405 (DR4); DRB1 *0405): > 13 µM
IC50 (HLA-DR DRB1*1101 (DR11); DRB1 *1101): 0.024 µM
IC50 (HLA-DR DRB1*1302 (DR13); DRBI *1302): 8.74 µM
IC50 (HLA-DR DRB1*1501 (DR15); DRBI *1501): 1.61 µM
IC50 (HLA-DR DRB3*0101 (DR52)): > 71 µM
IC50 (HLA-DR DRB5*0101 (DR51); DRB5 *0101): 12 µM

ALWRVSAEEY
IC50 (HLA-DR DRB1*0101 (DR1); DRB1 *0101): > 6.34 µM
IC50 (HLA-DR DRB1*0301 (DR3)): > 76.6 µM
IC50 (HLA-DR DRB1*0401 (DR4); DRB1 *0401): 6.54 µM
IC50 (HLA-DR DRB1*0405 (DR4); DRB1 *0405): > 35.3 µM
IC50 (HLA-DR DRB1*0701 (DR7); DRB1 *0701): 7.95 µM
IC50 (HLA-DR DRB1*0802 (DR8)): 4.1 µM
IC50 (HLA-DR DRB1*0901 (DR9); DRB1 *0901): 0.698 µM
IC50 (HLA-DR DRB1*1101 (DR11); DRB1 *1101): 0.243 µM
IC50 (HLA-DR DRB1*1302 (DR13); DRBI *1302): > 6.4 µM
IC50 (HLA-DR DRB1*1501 (DR15); DRBI *1501): > 15.3 µM
IC50 (HLA-DR DRB4*0101 (DR53); DRB4 *0101): > 7.93 µM
IC50 (HLA-DR DRB5*0101 (DR51); DRB5 *0101): > 35.6 µM

GAPLGAAARALAHGV
IC50 (HLA-DR DRB1*0101 (DR1)): 0.226 µM
IC50 (HLA-DR DRB1*0405 (DR4)): > 13 µM
IC50 (HLA-DR DRB1*0701 (DR7)): 6.49 µM
IC50 (HLA-DR DRB1*1101 (DR11)): 0.036 µM
IC50 (HLA-DR DRB1*1302 (DR13)): 15.1 µM
IC50 (HLA-DR DRB1*1501 (DR15)): 3.92 µM
IC50 (HLA-DR DRB3*0101 (DR52)): > 71 µM
IC50 (HLA-DR DRB4*0101 (DR53)): 16.5 µM
IC50 (HLA-DR DRB5*0101 (DR51)): 4.5 µM

GAALGGAARALAHGV
IC50 (HLA-DR DRB1*0301 (DR3)): 26.9 µM
IC50 (HLA-DR DRB1*0405 (DR4)): > 13 µM
IC50 (HLA-DR DRB1*0701 (DR7)): 29.8 µM
IC50 (HLA-DR DRB1*1101 (DR11)): 0.168 µM
IC50 (HLA-DR DRB1*1302 (DR13)): 19.3 µM
IC50 (HLA-DR DRB1*1501 (DR15)): 4.48 µM
IC50 (HLA-DR DRB3*0101 (DR52)): > 71 µM
IC50 (HLA-DR DRB5*0101 (DR51)): 25.4 µM

FPDWQNYTPGPGTRF
IC50 (HLA-DR DRB1*0301 (DR3)): > 224 µM
IC50 (HLA-DR DRB1*0401 (DR4); DRB1 *0401): 23.4 µM
IC50 (HLA-DR DRB1*0405 (DR4); DRB1 *0405): > 10.1 µM
IC50 (HLA-DR DRB1*0701 (DR7); DRB1 *0701): 59.6 µM
IC50 (HLA-DR DRB1*0802 (DR8)): 0.592 µM
IC50 (HLA-DR DRB1*0901 (DR9); DRB1 *0901): 3.01 µM
IC50 (HLA-DR DRB1*1101 (DR11); DRB1 *1101): > 51.3 µM
IC50 (HLA-DR DRB1*1302 (DR13); DRBI *1302): > 12 µM
IC50 (HLA-DR DRB1*1501 (DR15); DRBI *1501): 35.1 µM
IC50 (HLA-DR DRB4*0101 (DR53); DRB4 *0101): 33.9 µM
IC50 (HLA-DR DRB5*0101 (DR51); DRB5 *0101): > 20.5 µM

GAPLAGAARALAHGV
IC50 (HLA-DR DRB1*0301 (DR3)): 2.98 µM
IC50 (HLA-DR DRB1*0401 (DR4)): 39.9 µM
IC50 (HLA-DR DRB1*0405 (DR4)): > 13 µM
IC50 (HLA-DR DRB1*0701 (DR7)): 8.18 µM
IC50 (HLA-DR DRB1*1101 (DR11)): 0.0095 µM
IC50 (HLA-DR DRB1*1302 (DR13)): 7.21 µM
IC50 (HLA-DR DRB1*1501 (DR15)): 2.81 µM
IC50 (HLA-DR DRB3*0101 (DR52)): > 71 µM
IC50 (HLA-DR DRB4*0101 (DR53)): 2.96 µM
IC50 (HLA-DR DRB5*0101 (DR51)): 7.69 µM

QLCFLKKGLGISYGR
IC50 (HLA-DR DRB1*0301 (DR3)): 158 µM
IC50 (HLA-DR DRB1*0401 (DR4)): 4.44 µM
IC50 (HLA-DR DRB1*0405 (DR4)): 0.443 µM
IC50 (HLA-DR DRB1*0701 (DR7)): 3.63 µM
IC50 (HLA-DR DRB1*0802 (DR8)): 0.04 µM
IC50 (HLA-DR DRB1*0901 (DR9)): 0.2 µM
IC50 (HLA-DR DRB1*1101 (DR11)): 0.0095 µM
IC50 (HLA-DR DRB1*1302 (DR13)): 0.088 µM
